# Earlier results, collected in patent US20050261194A1, “Use of thymulin-like peptides for making pain-relieving medicines” (priority 2001, published 2005).
# Where no end group is shown, it is not given here. [ ]: non-standard residue; d: D form. pGlu = O=C1CC[C@@H](C(=O)O)N1
# Tested on: rat
# Conditions: cited from earlier work
substance,measurement,setting,value
PyroGlu-Ala-Lys-Ser-Gln-Gly-Gly-Ser-Asn ([pGlu]AKSQGGSN) [thymuline],effect on hyperalgesia at higher doses,"micrograms in the rat, 50-100 μg/kg",reduces hyperalgesia
same,effect on hyperalgesia at low dose,"nanograms in the rat, 0.2 to 20 μg/kg",induces hyperalgesia
